{"source": "patent US7259004B1", "about": "“Endophytic streptomycetes from higher plants with biological activity” (Montana State University, priority 2002, dated 2007)", "key": {"[1]": {"tested_on": "Staphylococcus aureus ATCC 33591 (MRSA)", "assay": "microbroth dilution MIC", "assay_type": "cell-based", "conditions": "Staphylococcus aureus; Table 15"}, "[2]": {"tested_on": "Enterococcus faecalis ATCC 51299 (VRE)", "assay": "microbroth dilution MIC", "assay_type": "cell-based", "conditions": "Enterococcus faecalis; Table 15"}, "S. epidermis 12228": {"tested_on": "S. epidermis 12228", "assay": "microbroth dilution MIC", "assay_type": "cell-based, Staphylococcus epidermidis", "conditions": "Staphylococcus epidermidis, ATCC12228; Table 15; read-out: MIC Staphylococcus epidermidis ATCC 12228"}, "E. faecium 49624": {"tested_on": "E. faecium 49624", "assay": "microbroth dilution MIC", "assay_type": "cell-based, Enterococcus faecium", "conditions": "Enterococcus faecium, ATCC49624; Table 15; read-out: MIC Enterococcus faecium ATCC 49624"}, "E. faecalis 29212": {"tested_on": "E. faecalis 29212", "assay": "microbroth dilution MIC", "assay_type": "cell-based, Enterococcus faecalis", "conditions": "Enterococcus faecalis, ATCC29212; Table 15; read-out: MIC Enterococcus faecalis ATCC 29212"}, "S. aureus 29213": {"tested_on": "S. aureus 29213", "assay": "microbroth dilution MIC", "assay_type": "cell-based, Staphylococcus aureus", "conditions": "Staphylococcus aureus, ATCC29213; Table 15; read-out: MIC Staphylococcus aureus ATCC 29213"}, "[3]": {"tested_on": "Listeria monocytogenes 19114", "assay": "microbroth dilution MIC", "assay_type": "cell-based", "conditions": "Listeria monocytogenes, ATCC19114; Table 15; read-out: MIC Listeria monocytogenes ATCC 19114"}, "[4]": {"tested_on": "Listeria monocytogenes 19115", "assay": "microbroth dilution MIC", "assay_type": "cell-based", "conditions": "Listeria monocytogenes, ATCC19115; Table 15; read-out: MIC Listeria monocytogenes ATCC 19115"}, "[5]": {"tested_on": "Staphylococccus simulans 11631", "assay": "microbroth dilution MIC", "assay_type": "cell-based, Staphylococcus simulans", "conditions": "Staphylococcus simulans, ATCC11631; Table 15; read-out: MIC Staphylococcus simulans ATCC 11631"}, "[6]": {"tested_on": "Staphylococccus aureus 27734", "assay": "microbroth dilution MIC", "assay_type": "cell-based, Staphylococcus aureus", "conditions": "Staphylococcus aureus, ATCC27734; Table 15; read-out: MIC Staphylococcus aureus ATCC 27734"}, "[7]": {"tested_on": "Streptococcus pneumoniae 49619", "assay": "microbroth dilution MIC", "assay_type": "cell-based", "conditions": "Streptococcus pneumoniae, ATCC49619; Table 15; read-out: MIC Streptococcus pneumoniae ATCC 49619"}, "[8]": {"tested_on": "Bacillus anthracis 40/BA 100", "assay": "microbe, parasite or virus in culture", "assay_type": "cell-based", "conditions": "40/BA100, read-out: MIC Bacillus anthracis 40/BA 100"}, "Bacillus anthracis 14578": {"tested_on": "Bacillus anthracis 14578", "assay": "microbe, parasite or virus in culture", "assay_type": "cell-based", "conditions": "Bacillus anthracis, 14578, read-out: MIC Bacillus anthracis 14578"}, "Bacillus anthracis 28": {"tested_on": "Bacillus anthracis 28", "assay": "microbe, parasite or virus in culture", "assay_type": "cell-based", "conditions": "Bacillus anthracis, 28, read-out: MIC Bacillus anthracis 28"}, "Bacillus anthracis 62-8": {"tested_on": "Bacillus anthracis 62-8", "assay": "microbe, parasite or virus in culture", "assay_type": "cell-based", "conditions": "Bacillus anthracis, 628, read-out: MIC Bacillus anthracis 62-8"}, "[9]": {"tested_on": "Shigella dysenteriae ATCC 11835", "assay": "microbroth dilution MIC", "assay_type": "cell-based", "conditions": "ATCC11835, Table 15, read-out: MIC Shigella dysenteriae ATCC 11835"}, "[10]": {"tested_on": "Staphylococcus aureus GISA, ATCC 700787", "assay": "microbroth dilution MIC", "assay_type": "cell-based", "conditions": "ATCC700787, Table 15, read-out: MIC Staphylococcus aureus GISA, ATCC 700787"}, "[11]": {"tested_on": "Streptococcus pneumoniae ATCC 70674", "assay": "microbroth dilution MIC", "assay_type": "cell-based", "conditions": "ATCC70674, Table 15, read-out: MIC Streptococcus pneumoniae ATCC 70674"}, "[12]": {"tested_on": "Streptococcus pneumoniae ATCC 70676", "assay": "microbroth dilution MIC", "assay_type": "cell-based", "conditions": "ATCC70676, Table 15, read-out: MIC Streptococcus pneumoniae ATCC 70676"}, "B. subtilis 1A757": {"tested_on": "B. subtilis 1A757", "assay": "microbe, parasite or virus in culture", "assay_type": "cell-based, Bacillus subtilis", "conditions": "for MIC: Bacillus subtilis, read-out: MIC B. subtilis 1A757"}, "S. aureus ATCC 6583P": {"tested_on": "S. aureus ATCC 6583P", "assay": "MIC with and without double stranded DNA", "assay_type": "cell-based, Staphylococcus aureus", "conditions": "Staphylococcus aureus, ATCC6583P, read-out: MIC S. aureus ATCC 6583P"}, "[13]": {"assay": "CellTiter 96 Aqueous Non-Radioactive Cell Proliferation Assay", "assay_type": "cell-based, human", "conditions": "human, read-out: IC50 cytotoxicity, human mammary epithelial cells"}, "[14]": {"tested_on": "Human Breast Cancer Epithelial BT-20", "assay": "CellTiter 96 Aqueous Non-Radioactive Cell Proliferation Assay", "assay_type": "cell-based", "conditions": "for IC50: Homo sapiens"}, "[15]": {"tested_on": "Human Cervical Cancer Epithelial ME180", "assay": "CellTiter 96 Aqueous Non-Radioactive Cell Proliferation Assay", "assay_type": "cell-based", "conditions": "Homo sapiens, ME-180, read-out: IC50 Human Cervical Cancer Epthelial ME180", "in_short": "(§1)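 Cells rested 5 h at 37° C after seeding, then treated in triplicate with two-fold serial dilutions of compound. A-549 and ME-180 were exposed for 48 h. After 1–4 h MTS reagent at 37° C, OD490 was read and corrected by subtracting medium-only blanks.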"}, "[16]": {"tested_on": "Human Lung Cancer Epithelial A549", "assay": "CellTiter 96 Aqueous Non-Radioactive Cell Proliferation Assay", "assay_type": "cell-based", "conditions": "Homo sapiens, A549, read-out: IC50 Human Lung Cancer Epithelial A549", "in_short": "as §1"}, "[17]": {"tested_on": "Human Primary Mammary Epithelial HMEC", "assay": "CellTiter 96 Aqueous Non-Radioactive Cell Proliferation Assay", "assay_type": "cell-based", "conditions": "Homo sapiens, HMEC, read-out: IC50 Human Primary Mammary Epithelial HMEC, Table 12"}, "[18]": {"tested_on": "DNA synthesis in Bacillus subtilis", "assay": "macromolecular synthesis whole cell assay, [3H]thymidine incorporation", "assay_type": "cell-based", "conditions": "5 min; 1×MIC"}, "[19]": {"tested_on": "RNA synthesis in Bacillus subtilis", "assay": "macromolecular synthesis whole cell assay, [3H]uridine incorporation", "assay_type": "cell-based", "conditions": "1×MIC"}, "[20]": {"tested_on": "Protein synthesis in Bacillus subtilis", "assay": "macromolecular synthesis whole cell assay, [3H]amino acid mixture incorporation", "assay_type": "cell-based", "conditions": "1×MIC"}, "[21]": {"assay": "solubility in acetonitrile"}, "[22]": {"tested_on": "Plasmodium falciparum strain CSC-1 (Honduras)", "assay": "antimalarial assay, 3H-phenylalanine radiobioassay in human red blood cells", "conditions": "Plasmodium falciparum, Erythrocyte, read-out: IC50 Plasmodium falciparum"}}, "note": "Read-outs that look alike come from different tables or passages of the source."}
{"smiles": "CS[C@H]1SC[C@H]2C(=O)N(C)[C@@H](C(C)C)C(=O)OC[C@@H](NC(=O)c3cnc4ccccc4n3)C(=O)N[C@@H](C)C(=O)N(C)[C@@H]1C(=O)N(C)[C@@H](C(C)C)C(=O)OC[C@@H](NC(=O)c1cnc3ccccc3n1)C(=O)N[C@@H](C)C(=O)N2C", "note": "[Echinomycin, reference compound]", "values": [{"measurement": "MIC", "setting": "[1]", "result": 0.5, "unit": "µg/mL"}, {"measurement": "MIC", "setting": "[2]", "result": 0.125, "unit": "µg/mL"}, {"measurement": "MIC", "setting": "S. epidermis 12228", "result": 0.25, "unit": "µg/mL"}, {"measurement": "MIC", "setting": "E. faecium 49624", "result": "≤ 0.062", "unit": "µg/mL"}, {"measurement": "MIC", "setting": "E. faecalis 29212", "result": 0.125, "unit": "µg/mL"}, {"measurement": "MIC", "setting": "S. aureus 29213", "result": 0.5, "unit": "µg/mL"}, {"measurement": "MIC", "setting": "[3]", "result": 0.5, "unit": "µg/mL"}, {"measurement": "MIC", "setting": "[4]", "result": 0.25, "unit": "µg/mL"}, {"measurement": "MIC", "setting": "[5]", "result": 0.25, "unit": "µg/mL"}, {"measurement": "MIC", "setting": "[6]", "result": 0.25, "unit": "µg/mL"}, {"measurement": "MIC", "setting": "[7]", "result": "< 0.0325", "unit": "µg/mL"}, {"measurement": "MIC", "setting": "[8]", "result": 1.4, "unit": "µg/mL"}, {"measurement": "MIC", "setting": "Bacillus anthracis 14578", "result": 1.99, "unit": "µg/mL"}, {"measurement": "MIC", "setting": "Bacillus anthracis 28", "result": 2.4, "unit": "µg/mL"}, {"measurement": "MIC", "setting": "Bacillus anthracis 62-8", "result": 1.4, "unit": "µg/mL"}, {"measurement": "MIC", "setting": "[9]", "result": 8, "unit": "µg/mL"}, {"measurement": "MIC", "setting": "[10]", "result": 1, "unit": "µg/mL"}, {"measurement": "MIC", "setting": "[11]", "result": "< 0.0325", "unit": "µg/mL"}, {"measurement": "MIC", "setting": "[12]", "result": "< 0.0325", "unit": "µg/mL"}, {"measurement": "1×MIC against Bacillus subtilis", "setting": "B. subtilis 1A757", "result": 0.25, "unit": "micrograms/ml"}, {"measurement": "MIC", "setting": "B. subtilis 1A757; 1A757, DNA +, 20 micrograms per well of sheared salmon sperm DNA", "result": 8, "unit": "µg/mL"}, {"measurement": "MIC", "setting": "B. subtilis 1A757; 1A757, DNA −", "result": 0.125, "unit": "µg/mL"}, {"measurement": "MIC", "setting": "S. aureus ATCC 6583P; DNA +, 20 micrograms per well of sheared salmon sperm DNA", "result": 16, "unit": "µg/mL"}, {"measurement": "MIC", "setting": "S. aureus ATCC 6583P; DNA −", "result": 0.5, "unit": "µg/mL"}, {"measurement": "IC50 at 48 h", "setting": "[13]; Example 15", "result": "0.0108 ± 0.0011", "unit": "µg/mL"}, {"measurement": "IC50 at 48 h", "setting": "[13]; text of Examples 18, 19", "result": 4.8, "unit": "µg/mL"}, {"measurement": "IC50", "setting": "[14]; BT-20, read-out: IC50 Human Breast Cancer Eipthelial BT-20, Table 12", "result": 0.0048, "unit": "µg/mL"}, {"measurement": "IC50", "setting": "[14]; BT-20, read-out: IC50 human breast cancer cell line BT 20, text of Examples 15, 18, 19", "result": 0.0048, "unit": "µg/mL"}, {"measurement": "IC50 human breast cancer cell line BT 20", "setting": "[14]; text of Examples 15, 18, 19, listed as echnimonycin", "result": 0.0065, "unit": "µg/mL"}, {"measurement": "IC50", "setting": "[15]", "result": 0.023, "unit": "µg/mL"}, {"measurement": "IC50", "setting": "[16]", "result": 0.145, "unit": "µg/mL"}, {"measurement": "IC50", "setting": "[17]", "result": 0.0108, "unit": "µg/mL"}, {"measurement": "% [3H]thymidine (DNA synthesis) incorporation of that of the untreated culture", "setting": "[18]", "result": 1, "unit": "%"}, {"measurement": "% [3H]uridine (RNA synthesis) incorporation of that of the untreated culture", "setting": "[19]; 5 min", "result": 41, "unit": "%"}, {"measurement": "% [3H]uridine (RNA synthesis) incorporation of that of the untreated culture", "setting": "[19]; 10 min", "result": 37, "unit": "%"}, {"measurement": "% [3H]amino acid mixture (Protein synthesis) incorporation of that of the untreated culture", "setting": "[20]; 5 min", "result": 73, "unit": "%"}, {"measurement": "% [3H]amino acid mixture (Protein synthesis) incorporation of that of the untreated culture", "setting": "[20]; 10 min", "result": 62, "unit": "%"}, {"measurement": "Solubility in acetonitrile", "setting": "[21]", "result": "sparingly soluble"}, {"measurement": "IC50", "setting": "[22]", "result": "0.00408 ± 0.0001", "unit": "µg/mL"}]}
